# Measured values: ChEMBL document CHEMBL4673237, “Annulation reaction enables the identification of an exocyclic amide tricyclic chemotype as retinoic acid Receptor-Related orphan receptor gamma (RORγ/RORc) inverse agonists” (Bioorg Med Chem Lett, 2020)
# Assays:
# [1] = Metabolic stability in human liver microsomes assessed as parent compound remaining; format: ADME, Microsome
# [2] = Metabolic stability in mouse liver microsomes assessed as parent compound remaining; format: ADME, Microsome
# [3] = molecular target: T1, Nuclear receptor subfamily 1 group I member 2 (Homo sapiens, UniProt O75469); assay: Inhibition of PXR (unknown origin); details: dose >50 µM
# T1 sequence (O75469 whole entry): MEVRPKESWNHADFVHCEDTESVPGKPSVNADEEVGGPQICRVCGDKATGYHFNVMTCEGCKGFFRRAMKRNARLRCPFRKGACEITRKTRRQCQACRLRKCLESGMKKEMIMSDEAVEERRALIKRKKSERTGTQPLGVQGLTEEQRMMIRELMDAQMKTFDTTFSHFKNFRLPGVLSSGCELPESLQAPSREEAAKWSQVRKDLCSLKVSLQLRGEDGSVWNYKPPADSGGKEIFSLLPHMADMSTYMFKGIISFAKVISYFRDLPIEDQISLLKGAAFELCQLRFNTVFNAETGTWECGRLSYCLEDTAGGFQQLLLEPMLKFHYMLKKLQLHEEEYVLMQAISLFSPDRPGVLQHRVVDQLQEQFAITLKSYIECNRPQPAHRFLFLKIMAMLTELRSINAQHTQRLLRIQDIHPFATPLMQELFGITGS
# Cytochrome P450 1A2 = molecular target: T2, Cytochrome P450 1A2 (Homo sapiens, UniProt P05177); assay: Inhibition of recombinant CYP1A2 (unknown origin); format: ADME; details: recombinant enzyme, dose >10 µM
# T2 sequence (P05177 whole entry): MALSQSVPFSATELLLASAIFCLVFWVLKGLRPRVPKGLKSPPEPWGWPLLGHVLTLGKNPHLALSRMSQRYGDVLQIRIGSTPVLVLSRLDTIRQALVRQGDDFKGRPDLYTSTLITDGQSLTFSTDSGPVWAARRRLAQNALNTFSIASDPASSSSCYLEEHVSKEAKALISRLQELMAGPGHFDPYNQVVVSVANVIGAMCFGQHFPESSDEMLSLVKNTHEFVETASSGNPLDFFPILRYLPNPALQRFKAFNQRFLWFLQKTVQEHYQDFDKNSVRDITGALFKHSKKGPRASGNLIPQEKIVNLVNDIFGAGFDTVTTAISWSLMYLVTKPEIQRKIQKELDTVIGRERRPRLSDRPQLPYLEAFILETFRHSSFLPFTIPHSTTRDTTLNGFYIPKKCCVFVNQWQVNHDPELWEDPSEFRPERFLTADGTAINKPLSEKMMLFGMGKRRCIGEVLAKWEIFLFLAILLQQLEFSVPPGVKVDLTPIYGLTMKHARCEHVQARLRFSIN
# Cytochrome P450 2C8 = molecular target: T3, Cytochrome P450 2C8 (Homo sapiens, UniProt P10632); assay: Inhibition of recombinant CYP2C8 (unknown origin); format: ADME; details: recombinant enzyme, dose >10 µM
# T3 sequence (P10632 whole entry): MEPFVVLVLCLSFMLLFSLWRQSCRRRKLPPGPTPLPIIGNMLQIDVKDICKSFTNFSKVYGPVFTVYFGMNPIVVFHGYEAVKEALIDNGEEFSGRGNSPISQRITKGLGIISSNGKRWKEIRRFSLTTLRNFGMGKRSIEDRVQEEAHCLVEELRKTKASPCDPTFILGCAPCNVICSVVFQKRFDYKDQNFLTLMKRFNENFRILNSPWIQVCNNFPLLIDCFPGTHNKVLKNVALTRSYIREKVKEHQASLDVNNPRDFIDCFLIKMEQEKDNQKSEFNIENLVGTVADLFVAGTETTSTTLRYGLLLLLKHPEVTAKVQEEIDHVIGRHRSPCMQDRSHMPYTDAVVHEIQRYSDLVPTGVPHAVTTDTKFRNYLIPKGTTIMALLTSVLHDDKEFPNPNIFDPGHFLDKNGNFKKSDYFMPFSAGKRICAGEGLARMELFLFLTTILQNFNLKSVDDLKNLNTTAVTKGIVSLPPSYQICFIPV
# Cytochrome P450 2C9 = Cytochrome P450 2C9 (Homo sapiens, UniProt P11712); assay: Inhibition of recombinant CYP2C9 (unknown origin); format: ADME; details: recombinant enzyme, dose >10 µM
# Sequence of Cytochrome P450 2C9 (P11712 whole entry): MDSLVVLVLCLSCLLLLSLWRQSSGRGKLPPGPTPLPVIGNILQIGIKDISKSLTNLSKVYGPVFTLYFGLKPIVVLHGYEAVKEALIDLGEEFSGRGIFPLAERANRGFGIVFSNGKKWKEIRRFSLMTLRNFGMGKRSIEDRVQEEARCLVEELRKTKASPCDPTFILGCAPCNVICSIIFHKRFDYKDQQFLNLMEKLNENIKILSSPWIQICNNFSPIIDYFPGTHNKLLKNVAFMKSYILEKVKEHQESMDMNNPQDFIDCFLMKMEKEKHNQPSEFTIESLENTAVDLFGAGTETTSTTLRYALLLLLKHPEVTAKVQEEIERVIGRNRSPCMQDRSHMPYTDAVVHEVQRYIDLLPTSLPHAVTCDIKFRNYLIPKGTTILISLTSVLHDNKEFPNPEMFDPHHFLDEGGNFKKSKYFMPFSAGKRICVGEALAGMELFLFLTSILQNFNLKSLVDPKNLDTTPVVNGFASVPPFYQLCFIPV
# Cytochrome P450 2C19 = Cytochrome P450 2C19 (Homo sapiens, UniProt P33261); assay: Inhibition of recombinant CYP2C19 (unknown origin); format: ADME; details: recombinant enzyme, dose >10 µM
# Sequence of Cytochrome P450 2C19 (P33261 whole entry): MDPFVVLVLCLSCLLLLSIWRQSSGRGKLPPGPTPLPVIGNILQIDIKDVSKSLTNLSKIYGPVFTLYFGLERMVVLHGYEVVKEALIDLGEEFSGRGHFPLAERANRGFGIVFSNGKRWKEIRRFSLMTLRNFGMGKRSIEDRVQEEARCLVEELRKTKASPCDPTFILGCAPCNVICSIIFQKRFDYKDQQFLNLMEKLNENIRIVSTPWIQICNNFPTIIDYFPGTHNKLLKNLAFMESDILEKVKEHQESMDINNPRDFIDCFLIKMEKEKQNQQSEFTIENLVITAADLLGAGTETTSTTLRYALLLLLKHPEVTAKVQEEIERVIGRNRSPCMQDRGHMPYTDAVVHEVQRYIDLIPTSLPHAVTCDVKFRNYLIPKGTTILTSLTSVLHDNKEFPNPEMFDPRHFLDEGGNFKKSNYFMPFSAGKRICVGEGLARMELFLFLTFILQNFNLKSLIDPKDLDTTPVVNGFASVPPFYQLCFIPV
# Cytochrome P450 2D6 = Cytochrome P450 2D6 (Homo sapiens, UniProt P10635); assay: Inhibition of recombinant CYP2D6 (unknown origin); format: ADME; details: recombinant enzyme, dose >10 µM
# Sequence of Cytochrome P450 2D6 (P10635 whole entry): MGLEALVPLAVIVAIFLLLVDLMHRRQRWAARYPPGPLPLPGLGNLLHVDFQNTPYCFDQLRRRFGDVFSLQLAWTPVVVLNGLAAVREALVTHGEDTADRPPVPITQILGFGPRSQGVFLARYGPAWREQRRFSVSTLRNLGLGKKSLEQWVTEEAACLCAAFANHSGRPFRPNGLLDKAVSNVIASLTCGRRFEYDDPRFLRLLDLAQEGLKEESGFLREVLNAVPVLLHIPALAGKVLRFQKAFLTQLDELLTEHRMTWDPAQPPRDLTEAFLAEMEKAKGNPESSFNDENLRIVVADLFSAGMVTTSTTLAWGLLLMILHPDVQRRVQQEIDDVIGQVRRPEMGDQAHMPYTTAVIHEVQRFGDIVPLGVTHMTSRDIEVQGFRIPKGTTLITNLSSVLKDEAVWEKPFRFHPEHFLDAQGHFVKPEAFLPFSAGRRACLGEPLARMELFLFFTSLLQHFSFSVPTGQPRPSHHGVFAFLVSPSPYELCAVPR
# [4] = Metabolic stability in human liver microsomes assessed as half life
# [5] = Metabolic stability in mouse liver microsomes assessed as half life
# [6] = Permeability from apical side to basolateral side in human Caco-2 cells; format: ADME, cell-based; details: read-out: permeability
# [7] = Protein binding in human serum assessed as unbound fraction; format: ADME, cell-free
# [8] = Protein binding in mouse serum assessed as unbound fraction; format: ADME, cell-free
Structure (SMILES),Stabilty [1] [%],Stabilty [2] [%],also measured
CC(C)(O)CNC(=O)[C@@H]1CC[C@@]2(S(=O)(=O)c3ccc(F)cc3)c3ccc(C(F)(C(F)(F)F)C(F)(F)F)cc3CC[C@@H]12,99,77,INH [3]: > 50 µM; INH (Cytochrome P450 1A2): > 10 µM; INH (Cytochrome P450 2C8): > 10 µM; INH (Cytochrome P450 2C9): > 10 µM; INH (Cytochrome P450 2C19): > 10 µM; INH (Cytochrome P450 2D6): > 10 µM; half-life [4]: 1.35 h; half-life [5]: 0.683 h; Papp A→B [6]: 15 ×10⁻⁶ cm/s; Fu [7]: 0.5%; Fu [8]: 0.4%
O=C(NC[C@H](O)C(F)(F)F)[C@@H]1CC[C@@]2(S(=O)(=O)c3ccc(F)cc3)c3ccc(C(F)(C(F)(F)F)C(F)(F)F)cc3CC[C@@H]12,100,100,–
C[C@@H](O)CNC(=O)[C@@H]1CC[C@@]2(S(=O)(=O)c3ccc(F)cc3)c3ccc(C(F)(C(F)(F)F)C(F)(F)F)cc3CC[C@@H]12,56,51,–
O=C(NCCO)[C@@H]1CC[C@@]2(S(=O)(=O)c3ccc(F)cc3)c3ccc(C(F)(C(F)(F)F)C(F)(F)F)cc3CC[C@@H]12,86,78,–
O=C(NCC1(O)CC1)[C@@H]1CC[C@@]2(S(=O)(=O)c3ccc(F)cc3)c3ccc(C(F)(C(F)(F)F)C(F)(F)F)cc3CC[C@@H]12,19,26,–
O=C(NCC1(O)CCC1)[C@@H]1CC[C@@]2(S(=O)(=O)c3ccc(F)cc3)c3ccc(C(F)(C(F)(F)F)C(F)(F)F)cc3CC[C@@H]12,74,57,–
C[C@H](O)CNC(=O)[C@@H]1CC[C@@]2(S(=O)(=O)c3ccc(F)cc3)c3ccc(C(F)(C(F)(F)F)C(F)(F)F)cc3CC[C@@H]12,34,41,–
O=C(NCC1(O)CCCC1)[C@@H]1CC[C@@]2(S(=O)(=O)c3ccc(F)cc3)c3ccc(C(F)(C(F)(F)F)C(F)(F)F)cc3CC[C@@H]12,22,41,–
C[C@H](CO)NC(=O)[C@@H]1CC[C@@]2(S(=O)(=O)c3ccc(F)cc3)c3ccc(C(F)(C(F)(F)F)C(F)(F)F)cc3CC[C@@H]12,46,39,–
CC(C)(O)C(C)(C)NC(=O)[C@@H]1CC[C@@]2(S(=O)(=O)c3ccc(F)cc3)c3ccc(C(F)(C(F)(F)F)C(F)(F)F)cc3CC[C@@H]12,75,14,–
O=C(NCC1(O)CCCCC1)[C@@H]1CC[C@@]2(S(=O)(=O)c3ccc(F)cc3)c3ccc(C(F)(C(F)(F)F)C(F)(F)F)cc3CC[C@@H]12,5,38,–
C[C@@H](CO)NC(=O)[C@@H]1CC[C@@]2(S(=O)(=O)c3ccc(F)cc3)c3ccc(C(F)(C(F)(F)F)C(F)(F)F)cc3CC[C@@H]12,53,55,–
